Laboratory results from PubChem BioAssay (NCI).
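Cells were grown in 96-well plates and exposed to each compound for 48 hours at five concentrations; endpoints were interpolated linearly between bracketing concentrations, or set to the highest concentration if not reached. The concentration for full growth arrest is given as TGI.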 Where a SMILES comes first, the peptide text is derived from it. The star is where a group is joined. Boc = CC(C)(C)OC(=O)*

Assays:
Experiment in all cases: growth of human tumour cells (NCI), 48 h
786-0 renal = system: 786-0 renal
A498 renal = system: A498 renal
A549 NSCLC = system: A549 NSCLC
ACHN renal = system: ACHN renal
BT-549 breast = system: BT-549 breast
CCRF-CEM leukemia = system: CCRF-CEM leukemia
DU-145 prostate = system: DU-145 prostate
HCC-2998 colon = system: HCC-2998 colon
HCT-116 colon = system: HCT-116 colon
HL-60(TB) leukemia = system: HL-60(TB) leukemia
HOP-62 NSCLC = system: HOP-62 NSCLC
HT29 colon = system: HT29 colon
IGROV1 ovarian = system: IGROV1 ovarian
K-562 leukemia = system: K-562 leukemia
LOX IMVI melanoma = system: LOX IMVI melanoma
M14 melanoma = system: M14 melanoma
MALME-3M melanoma = system: MALME-3M melanoma
MCF7 breast = system: MCF7 breast
MDA-MB-231 breast = system: MDA-MB-231 breast
MDA-MB-435 = system: MDA-MB-435
MDA-N = system: MDA-N
MOLT-4 leukemia = system: MOLT-4 leukemia
NCI-H226 lung = system: NCI-H226 lung
NCI-H23 lung = system: NCI-H23 lung
NCI-H460 lung = system: NCI-H460 lung
NCI-H522 lung = system: NCI-H522 lung
OVCAR-3 ovarian = system: OVCAR-3 ovarian
OVCAR-4 ovarian = system: OVCAR-4 ovarian
OVCAR-5 ovarian = system: OVCAR-5 ovarian
OVCAR-8 ovarian = system: OVCAR-8 ovarian
PC-3 prostate = system: PC-3 prostate
RPMI-8226 leukemia = system: RPMI-8226 leukemia
SF-268 CNS = system: SF-268 CNS
SK-MEL-2 melanoma = system: SK-MEL-2 melanoma
SK-MEL-28 melanoma = system: SK-MEL-28 melanoma
SK-MEL-5 melanoma = system: SK-MEL-5 melanoma
SN12C renal = system: SN12C renal
SNB-19 CNS = system: SNB-19 CNS
SNB-75 CNS = system: SNB-75 CNS
SR leukemia = system: SR leukemia
SW-620 colon = system: SW-620 colon
T-47D breast = system: T-47D breast
TK-10 renal = system: TK-10 renal
U251 CNS = system: U251 CNS
UACC-257 melanoma = system: UACC-257 melanoma
UACC-62 melanoma = system: UACC-62 melanoma
UO-31 renal = system: UO-31 renal
CAKI-1 renal = system: CAKI-1 renal
COLO 205 colon = system: COLO 205 colon
EKVX NSCLC = system: EKVX NSCLC
HCT-15 colon = system: HCT-15 colon
HS 578T breast = system: HS 578T breast
KM12 colon = system: KM12 colon
RXF 393 renal = system: RXF 393 renal
SF-295 CNS = system: SF-295 CNS
SF-539 CNS = system: SF-539 CNS

CC(C)(C)OC(=O)NC(Cc1ccc(O)cc1)C(=O)NC(CCCCN)C(=O)O (stereo not drawn) (Boc-Tyr-Lys-OH; configuration not given here)
TGI (786-0 renal): > 100 µM | TGI (A498 renal): 92.4 µM | TGI (A549 NSCLC): > 100 µM | TGI (ACHN renal): 65.1 µM | TGI (BT-549 breast): 80.5 µM | TGI (CCRF-CEM leukemia): 92.7 µM | TGI (DU-145 prostate): 80.3 µM | TGI (HCC-2998 colon): 65.3 µM | TGI (HCT-116 colon): 40.9 µM | TGI (HL-60(TB) leukemia): 52.8 µM | TGI (HOP-62 NSCLC): 39 µM | TGI (HT29 colon): > 100 µM | TGI (IGROV1 ovarian): 37.1 µM | TGI (K-562 leukemia): > 100 µM | TGI (LOX IMVI melanoma): 28.2 µM | TGI (M14 melanoma): 56 µM | TGI (MALME-3M melanoma): 76.6 µM | TGI (MCF7 breast): > 100 µM | TGI (MDA-MB-231 breast): 61.8 µM | TGI (MDA-MB-435): > 100 µM | TGI (MDA-N): > 100 µM | TGI (MOLT-4 leukemia): 94.7 µM | TGI (NCI-H226 lung): > 100 µM | TGI (NCI-H23 lung): 48.6 µM | TGI (NCI-H460 lung): 66.2 µM | TGI (NCI-H522 lung): 26.5 µM | TGI (OVCAR-3 ovarian): 66.3 µM | TGI (OVCAR-4 ovarian): 48.1 µM | TGI (OVCAR-5 ovarian): 84.9 µM | TGI (OVCAR-8 ovarian): > 100 µM | TGI (PC-3 prostate): > 100 µM | TGI (RPMI-8226 leukemia): 84.5 µM | TGI (SF-268 CNS): > 100 µM | TGI (SK-MEL-2 melanoma): 35.1 µM | TGI (SK-MEL-28 melanoma): 56.1 µM | TGI (SK-MEL-5 melanoma): > 100 µM | TGI (SN12C renal): 42.3 µM | TGI (SNB-19 CNS): 53.2 µM | TGI (SNB-75 CNS): 77 µM | TGI (SR leukemia): 77.3 µM | TGI (SW-620 colon): > 100 µM | TGI (T-47D breast): 53.1 µM | TGI (TK-10 renal): > 100 µM | TGI (U251 CNS): 43.5 µM | TGI (UACC-257 melanoma): 83.5 µM | TGI (UACC-62 melanoma): 31.5 µM | TGI (UO-31 renal): 54 µM

Cc1ncc([N+](=O)[O-])n1CCNC(=O)CCCn1ccnc1[N+](=O)[O-]
TGI (786-0 renal): > 100 µM | TGI (A498 renal): > 100 µM | TGI (A549 NSCLC): > 100 µM | TGI (ACHN renal): > 100 µM | TGI (BT-549 breast): > 100 µM | TGI (CAKI-1 renal): > 100 µM | TGI (CCRF-CEM leukemia): > 100 µM | TGI (COLO 205 colon): > 100 µM | TGI (DU-145 prostate): > 100 µM | TGI (EKVX NSCLC): > 100 µM | TGI (HCC-2998 colon): > 100 µM | TGI (HCT-116 colon): > 100 µM | TGI (HCT-15 colon): > 100 µM | TGI (HL-60(TB) leukemia): > 100 µM | TGI (HOP-62 NSCLC): > 100 µM | TGI (HS 578T breast): > 100 µM | TGI (HT29 colon): > 100 µM | TGI (IGROV1 ovarian): > 100 µM | TGI (K-562 leukemia): > 100 µM | TGI (KM12 colon): > 100 µM | TGI (LOX IMVI melanoma): > 100 µM | TGI (M14 melanoma): > 100 µM | TGI (MALME-3M melanoma): > 100 µM | TGI (MCF7 breast): > 100 µM | TGI (MDA-MB-231 breast): > 100 µM | TGI (MDA-MB-435): > 100 µM | TGI (MDA-N): > 100 µM | TGI (MOLT-4 leukemia): > 100 µM | TGI (NCI-H226 lung): > 100 µM | TGI (NCI-H23 lung): > 100 µM | TGI (NCI-H460 lung): > 100 µM | TGI (OVCAR-3 ovarian): > 100 µM | TGI (OVCAR-4 ovarian): > 100 µM | TGI (OVCAR-5 ovarian): > 100 µM | TGI (OVCAR-8 ovarian): > 100 µM | TGI (PC-3 prostate): > 100 µM | TGI (RPMI-8226 leukemia): > 100 µM | TGI (RXF 393 renal): > 100 µM | TGI (SF-268 CNS): > 100 µM | TGI (SF-295 CNS): > 100 µM | TGI (SF-539 CNS): > 100 µM | TGI (SK-MEL-2 melanoma): > 100 µM | TGI (SK-MEL-28 melanoma): > 100 µM | TGI (SK-MEL-5 melanoma): > 100 µM | TGI (SN12C renal): > 100 µM | TGI (SNB-19 CNS): > 100 µM | TGI (SNB-75 CNS): > 100 µM | TGI (SR leukemia): > 100 µM | TGI (SW-620 colon): > 100 µM | TGI (T-47D breast): > 100 µM | TGI (TK-10 renal): > 100 µM | TGI (U251 CNS): > 100 µM | TGI (UACC-257 melanoma): > 100 µM | TGI (UACC-62 melanoma): > 100 µM | TGI (UO-31 renal): > 100 µM

O=C(c1cc(Cl)ccc1Cl)N1CCN(c2cccc(Cl)c2)CC1
TGI (786-0 renal): 34 µM | TGI (A498 renal): 34.8 µM | TGI (A549 NSCLC): 42.6 µM | TGI (ACHN renal): 76.5 µM | TGI (BT-549 breast): 23.1 µM | TGI (CAKI-1 renal): > 100 µM | TGI (CCRF-CEM leukemia): 59.7 µM | TGI (DU-145 prostate): > 100 µM | TGI (EKVX NSCLC): 96.5 µM | TGI (HCC-2998 colon): 39.5 µM | TGI (HCT-116 colon): 24.1 µM | TGI (HCT-15 colon): > 100 µM | TGI (HL-60(TB) leukemia): > 100 µM | TGI (HOP-62 NSCLC): 61.5 µM | TGI (HS 578T breast): 65.8 µM | TGI (HT29 colon): 27.1 µM | TGI (IGROV1 ovarian): 56.8 µM | TGI (K-562 leukemia): 16.2 µM | TGI (KM12 colon): 20 µM | TGI (LOX IMVI melanoma): 25.5 µM | TGI (M14 melanoma): > 100 µM | TGI (MALME-3M melanoma): 28.6 µM | TGI (MCF7 breast): > 100 µM | TGI (MDA-MB-231 breast): 20.3 µM | TGI (MDA-N): 5.62 µM | TGI (MOLT-4 leukemia): 37 µM | TGI (NCI-H226 lung): 42.6 µM | TGI (NCI-H23 lung): > 100 µM | TGI (NCI-H460 lung): 31.5 µM | TGI (NCI-H522 lung): 30.4 µM | TGI (OVCAR-3 ovarian): 38 µM | TGI (OVCAR-4 ovarian): > 100 µM | TGI (OVCAR-5 ovarian): > 100 µM | TGI (OVCAR-8 ovarian): 38.9 µM | TGI (PC-3 prostate): 6.22 µM | TGI (RPMI-8226 leukemia): > 100 µM | TGI (RXF 393 renal): 27.5 µM | TGI (SF-268 CNS): > 100 µM | TGI (SF-295 CNS): 25.6 µM | TGI (SF-539 CNS): 31.4 µM | TGI (SK-MEL-28 melanoma): 81.9 µM | TGI (SK-MEL-5 melanoma): 19.3 µM | TGI (SN12C renal): 20.2 µM | TGI (SNB-19 CNS): > 100 µM | TGI (SNB-75 CNS): > 100 µM | TGI (SR leukemia): > 100 µM | TGI (SW-620 colon): 94.8 µM | TGI (T-47D breast): > 100 µM | TGI (TK-10 renal): > 100 µM | TGI (U251 CNS): 62 µM | TGI (UACC-257 melanoma): 50.3 µM | TGI (UO-31 renal): 58.9 µM
